# Measurements: US20060222706A1 (priority 2005, published 2006)
# Experiment: small volume in vitro release in 50 ml 0.1N HCl
# Type: physicochemical
# Settings: 37° C., 150 rpm
# Protocol: The formulations were tested for their small volume in vitro release characteristics in 50 ml 0.1N HCl at 37° C. and 150 rpm using the following procedure: III. Instrumentation (or Equivalent) • a. Automated Dissolution System comprising of: • Hanson SR8 Plus Test Station • Hanson Auto Plus Maximiser System Controller • Hanson Auto Plus MultiFill Fraction Collector • b. […] Procedure • Place one weighed capsule in each vessel containing 0.1N HCl and immediately operate the apparatus for 30 min. • Unless otherwise specified, 3 ml samples are withdrawn from each vessel and immediately filtered through PTFE membranes at 15 and 30 min. IV.
# The small volume was chosen as a model of the conditions in a fasted stomach.
compound,measurement,value
CC(C)OC(=O)C(C)(C)Oc1ccc(C(=O)c2ccc(Cl)cc2)cc1 [Micronized Fenofibrate],dissolution under small volume model condition (in words),no dissolution at all
